# Laboratory results from ChEMBL document CHEMBL1201861, “Genomics of Drug Sensitity in Cancer screening data, Wellcome Trust Sanger Institute”.
# What was measured:
# HuCCT-1 = assay: cells; type: functional, cell-based, HuCCT1; conditions: Homo sapiens;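 also: growth inhibition of HuCCT-1 cells, read out by a cell viability assay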
# Description: SANGER: Inhibition of human HuCCT1 cell growth in a cell viability assay.
# CHP-212 = assay: cells; type: functional, cell-based; conditions: Homo sapiens
# Description: SANGER: Inhibition of human CHP-212 cell growth in a cell viability assay.
# NCI-H2087 = assay: cells; type: functional, cell-based; conditions: Homo sapiens;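 also: growth inhibition determined with a cell viability readout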
# Description: SANGER: Inhibition of human NCI-H2087 cell growth in a cell viability assay.
# HT-29 = assay: cells; type: functional, cell-based; conditions: Homo sapiens;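 also: growth inhibition of human HT-29 cells, read out by a cell viability assay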
# Description: SANGER: Inhibition of human HT-29 cell growth in a cell viability assay.
# BHT-101 = assay: cells; type: functional, cell-based; conditions: Homo sapiens
# Description: SANGER: Inhibition of human BHT-101 cell growth in a cell viability assay.
# NCI-H1573 = assay: cells; type: functional, cell-based; conditions: Homo sapiens;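 also: growth inhibition of NCI-H1573 cells, read out with a cell viability assay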
# Description: SANGER: Inhibition of human NCI-H1573 cell growth in a cell viability assay.
# 639-V = assay: cells; type: functional, cell-based; conditions: Homo sapiens;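 also: growth inhibition of 639-V cells, read out with a cell viability assay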
# Description: SANGER: Inhibition of human 639-V cell growth in a cell viability assay.
# MHH-ES-1 = assay: cells; type: functional, cell-based; conditions: Homo sapiens
# Description: SANGER: Inhibition of human MHH-ES-1 cell growth in a cell viability assay.
# Daoy = assay: cells; type: functional, cell-based; conditions: Homo sapiens;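 also: daoy cell growth inhibition, read out as cell viability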
# Description: SANGER: Inhibition of human Daoy cell growth in a cell viability assay.
# HuP-T3 = assay: cells; type: functional, cell-based; conditions: Homo sapiens;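 also: HuP-T3 cell growth inhibition, read out with a cell viability assay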
# Description: SANGER: Inhibition of human HuP-T3 cell growth in a cell viability assay.
# SW780 = assay: cells; type: functional, cell-based; conditions: Homo sapiens;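 also: growth inhibition of the cells, read out with a cell viability assay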
# Description: SANGER: Inhibition of human SW780 cell growth in a cell viability assay.
# HCT-116 = assay: cells; type: functional, cell-based; conditions: Homo sapiens
# Description: SANGER: Inhibition of human HCT-116 cell growth in a cell viability assay.
# FTC-133 = assay: cells; type: functional, cell-based; conditions: Homo sapiens
# G-402 = assay: cells; type: functional, cell-based; conditions: Homo sapiens
# Description: SANGER: Inhibition of human G-402 cell growth in a cell viability assay.
# NCI-H460 = assay: cells; type: functional, cell-based; conditions: Homo sapiens;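 also: cell viability assay scoring growth inhibition of human NCI-H460 cells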
# Description: SANGER: Inhibition of human NCI-H460 cell growth in a cell viability assay.
# CAL-33 = assay: cells; type: functional, cell-based; conditions: Homo sapiens;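 also: growth inhibition of CAL-33 cells, read out with a cell viability assay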
# Description: SANGER: Inhibition of human CAL-33 cell growth in a cell viability assay.
# TYK-nu = assay: cells; type: functional, cell-based; conditions: Homo sapiens;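 also: growth inhibition of human TYK-nu cells, read out by a cell viability assay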
# Description: SANGER: Inhibition of human TYK-nu cell growth in a cell viability assay.
# HEC-1 = assay: cells; type: functional, cell-based; conditions: Homo sapiens;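 also: growth inhibition of the cell line, read out with a cell viability assay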
# Description: SANGER: Inhibition of human HEC-1 cell growth in a cell viability assay.
# HTC-C3 = assay: cells; type: functional, cell-based; conditions: Homo sapiens;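 also: inhibition of cell growth, read out with a cell viability assay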
# Description: SANGER: Inhibition of human HTC-C3 cell growth in a cell viability assay.
# U2OS = assay: cells; type: functional, cell-based, U-2-OS; conditions: Homo sapiens;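 also: growth inhibition of human U-2-OS cells, determined with a cell viability assay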
# Description: SANGER: Inhibition of human U-2-OS cell growth in a cell viability assay.
# CAMA-1 = assay: cells; type: functional, cell-based; conditions: Homo sapiens;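 also: growth inhibition of CAMA-1 cells, read out with a cell viability assay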
# Description: SANGER: Inhibition of human CAMA-1 cell growth in a cell viability assay.
# VMRC-RCZ = assay: cells; type: functional, cell-based; conditions: Homo sapiens
# Description: SANGER: Inhibition of human VMRC-RCZ cell growth in a cell viability assay.
# GP5d = assay: cells; type: functional, cell-based; conditions: Homo sapiens;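 also: growth inhibition of human GP5d cells, read out with a cell viability assay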
# Description: SANGER: Inhibition of human GP5d cell growth in a cell viability assay.
# GMS-10 = assay: cells; type: functional, cell-based; conditions: Homo sapiens;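 also: growth inhibition of GMS-10 cells, read out as cell viability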
# Description: SANGER: Inhibition of human GMS-10 cell growth in a cell viability assay.
# BFTC-905 = assay: cells; type: functional, cell-based; conditions: Homo sapiens
# Description: SANGER: Inhibition of human BFTC-905 cell growth in a cell viability assay.
# DU-145 = assay: cells; type: functional, cell-based; conditions: Homo sapiens
# Description: SANGER: Inhibition of human DU-145 cell growth in a cell viability assay.
# KP-N-YN = assay: cells; type: functional, cell-based; conditions: Homo sapiens;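 also: growth inhibition of KP-N-YN cells, read out with a cell viability assay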
# Description: SANGER: Inhibition of human KP-N-YN cell growth in a cell viability assay.
# NCI-H441 = assay: cells; type: functional, cell-based; conditions: Homo sapiens;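 also: growth inhibition of NCI-H441 cells, read out with a cell viability assay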
# Description: SANGER: Inhibition of human NCI-H441 cell growth in a cell viability assay.
# CAL-85-1 = assay: cells; type: functional, cell-based; conditions: Homo sapiens;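 also: growth inhibition of human CAL-85-1 cells, read out with a cell viability assay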
# Description: SANGER: Inhibition of human CAL-85-1 cell growth in a cell viability assay.
# Panc1005 = assay: cells; type: functional, cell-based; conditions: Homo sapiens;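 also: growth inhibition of human PANC-10-05 cells, measured by a cell viability assay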
# Description: SANGER: Inhibition of human PANC-10-05 cell growth in a cell viability assay.
# MDA-MB-415 = assay: cells; type: functional, cell-based; conditions: Homo sapiens
# MEL-HO = assay: cells; type: functional, cell-based; conditions: Homo sapiens
# Description: SANGER: Inhibition of human MEL-HO cell growth in a cell viability assay.
# MOLT-13 = assay: cells; type: functional, cell-based; conditions: Homo sapiens;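 also: IC50 for suppression of MOLT-13 cell growth, read out with a cell viability assay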
# Description: SANGER: Inhibition of human MOLT-13 cell growth in a cell viability assay.
# CAPAN-1 = assay: cells; type: functional, cell-based; conditions: Homo sapiens;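 also: growth suppression of CAPAN-1 cells, read out by a cell viability assay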
# Description: SANGER: Inhibition of human CAPAN-1 cell growth in a cell viability assay.
# DK-MG = assay: cells; type: functional, cell-based; conditions: Homo sapiens;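 also: growth inhibition of DK-MG cells, read out with a cell viability assay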
# Description: SANGER: Inhibition of human DK-MG cell growth in a cell viability assay.
# Detroit 562 = assay: cells; type: functional, cell-based; conditions: Homo sapiens;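 also: growth inhibition of human Detroit 562 cells, read out by a cell viability assay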
# Description: SANGER: Inhibition of human Detroit562 cell growth in a cell viability assay.
# C3A = assay: cells; type: functional, cell-based; conditions: Homo sapiens;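 also: growth inhibition of C3A human cells, quantified with a cell viability readout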
# Description: SANGER: Inhibition of human C3A cell growth in a cell viability assay.
# SK-MEL3 = assay: cells; type: functional, cell-based, SK-MEL-3; conditions: Homo sapiens;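 also: growth inhibition of human SK-MEL-3 cells, read out with a cell viability assay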
# Description: SANGER: Inhibition of human SK-MEL-3 cell growth in a cell viability assay.
# IGROV-1 = assay: cells; type: functional, cell-based; conditions: Homo sapiens;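 also: reduction of IGROV-1 cell growth, read out with a viability assay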
# Description: SANGER: Inhibition of human IGROV-1 cell growth in a cell viability assay.
# HCC70 = assay: cells; type: functional, cell-based; conditions: Homo sapiens;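 also: cell viability assay measuring how strongly the compound suppresses proliferation of HCC70 cells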
# Description: SANGER: Inhibition of human HCC70 cell growth in a cell viability assay.
# T-24 = assay: cells; type: functional, cell-based; conditions: Homo sapiens;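 also: growth inhibition of T-24 cells, read out with a cell viability assay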
# Description: SANGER: Inhibition of human T-24 cell growth in a cell viability assay.
# MeWo = assay: cells; type: functional, cell-based; conditions: Homo sapiens;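 also: growth inhibition of MeWo cells, determined by a cell viability readout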
# Description: SANGER: Inhibition of human Mewo cell growth in a cell viability assay.
# CAL-54 = assay: cells; type: functional, cell-based; conditions: Homo sapiens;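 also: growth inhibition of CAL-54 cells, read out by a viability measurement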
# Description: SANGER: Inhibition of human CAL-54 cell growth in a cell viability assay.
# SAS = assay: cells; type: functional, cell-based; conditions: Homo sapiens;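 also: growth inhibition of SAS cells, read out with a cell viability assay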
# Description: SANGER: Inhibition of human SAS cell growth in a cell viability assay.
# COLO-678 = assay: cells; type: functional, cell-based; conditions: Homo sapiens
# Description: SANGER: Inhibition of human COLO-678 cell growth in a cell viability assay.
# SCC-9 = assay: cells; type: functional, cell-based; conditions: Homo sapiens;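 also: Read-out is a cell viability assay, with values giving inhibition of cell growth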
# Description: SANGER: Inhibition of human SCC-9 cell growth in a cell viability assay.
# RPMI-7951 = assay: cells; type: functional, cell-based; conditions: Homo sapiens
# Description: SANGER: Inhibition of human RPMI-7951 cell growth in a cell viability assay.
# HT-1376 = assay: cells; type: functional, cell-based; conditions: Homo sapiens
# Description: SANGER: Inhibition of human HT-1376 cell growth in a cell viability assay.
# HSC-3 = assay: cells; type: functional, cell-based; conditions: Homo sapiens
# Description: SANGER: Inhibition of human HSC-3 cell growth in a cell viability assay.
# HN = assay: cells; type: functional, cell-based; conditions: Homo sapiens
# Description: SANGER: Inhibition of human HN cell growth in a cell viability assay.
# SNU-449 = assay: cells; type: functional, cell-based; conditions: Homo sapiens
# Description: SANGER: Inhibition of human SNU-449 cell growth in a cell viability assay.
# SR = assay: cells; type: functional, cell-based; conditions: Homo sapiens
# Description: SANGER: Inhibition of human SR cell growth in a cell viability assay.
# ARH-77 = assay: cells; type: functional, cell-based; conditions: Homo sapiens;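 also: growth inhibition of ARH-77 cells, read out by a cell viability assay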
# Description: SANGER: Inhibition of human ARH-77 cell growth in a cell viability assay.
# WSU-NHL = assay: cells; type: functional, cell-based; conditions: Homo sapiens;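 also: growth inhibition of human WSU-NHL cells, read out with a cell viability assay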
# Description: SANGER: Inhibition of human WSU-NHL cell growth in a cell viability assay.
# OPM-2 = assay: cells; type: functional, cell-based; conditions: Homo sapiens;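 also: growth of OPM-2 cells measured with a viability assay, IC50 for suppression of proliferation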
# Description: SANGER: Inhibition of human OPM-2 cell growth in a cell viability assay.
# SUP-T1 = assay: cells; type: functional, cell-based; conditions: Homo sapiens;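 also: growth inhibition of human SUP-T1 cells, read out as cell viability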
# Description: SANGER: Inhibition of human SUP-T1 cell growth in a cell viability assay.
# KARPAS-422 = assay: cells; type: functional, cell-based; conditions: Homo sapiens
# Description: SANGER: Inhibition of human KARPAS-422 cell growth in a cell viability assay.
# GDM-1 = assay: cells; type: functional, cell-based; conditions: Homo sapiens;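 also: cell viability readout used to measure growth inhibition of human GDM-1 cells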
# Description: SANGER: Inhibition of human GDM-1 cell growth in a cell viability assay.
# D-336MG = assay: cells; type: functional, cell-based; conditions: Homo sapiens
# Description: SANGER: Inhibition of human D-336MG cell growth in a cell viability assay.
# BL-70 = assay: SANGER: Inhibition of human BL-70 cell growth in a cell viability assay.; type: functional, cell-based
# NCCIT = assay: SANGER: Inhibition of human NCCIT cell growth in a cell viability assay.; type: functional, cell-based
# NALM-6 = assay: cells; type: functional, cell-based; conditions: Homo sapiens;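 also: growth inhibition of NALM-6 cells, read out with a cell viability assay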
# Description: SANGER: Inhibition of human NALM-6 cell growth in a cell viability assay.
# 23132-87 = assay: cells; type: functional, cell-based; conditions: Homo sapiens
# Description: SANGER: Inhibition of human 23132-87 cell growth in a cell viability assay.
# A 172 = assay: cells; type: functional, cell-based; conditions: Homo sapiens;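 also: growth inhibition of A172 cells, measured with a cell viability readout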
# Description: SANGER: Inhibition of human A172 cell growth in a cell viability assay.
# UO-31 = assay: cells; type: functional, cell-based; conditions: Homo sapiens
# Description: SANGER: Inhibition of human U031 cell growth in a cell viability assay.
structure (smiles),measurement,setting,value
CC(=O)c1c(C)c2cnc(Nc3ccc(N4CCNCC4)cn3)nc2n(C2CCCC2)c1=O [PALBOCICLIB],IC50,HuCCT-1,> 4000 nM
same,IC50,CHP-212,594 nM
same,IC50,NCI-H2087,> 4000 nM
same,IC50,HT-29,> 4000 nM
same,IC50,BHT-101,198 nM
same,IC50,NCI-H1573,2070 nM
same,IC50,639-V,> 4000 nM
same,IC50,MHH-ES-1,1180 nM
same,IC50,Daoy,> 4000 nM
same,IC50,HuP-T3,> 4000 nM
same,IC50,SW780,1960 nM
same,IC50,HCT-116,> 4000 nM
same,IC50,FTC-133,> 4000 nM
same,IC50,G-402,> 4000 nM
same,IC50,NCI-H460,3670 nM
same,IC50,CAL-33,> 4000 nM
same,IC50,TYK-nu,998 nM
same,IC50,HEC-1,> 4000 nM
same,IC50,HTC-C3,433 nM
same,IC50,U2OS,3730 nM
same,IC50,CAMA-1,834 nM
same,IC50,VMRC-RCZ,3360 nM
same,IC50,GP5d,> 4000 nM
same,IC50,GMS-10,> 4000 nM
same,IC50,BFTC-905,1240 nM
same,IC50,DU-145,3460 nM
same,IC50,KP-N-YN,> 4000 nM
same,IC50,NCI-H441,1550 nM
same,IC50,CAL-85-1,> 4000 nM
same,IC50,Panc1005,> 4000 nM
same,IC50,MDA-MB-415,> 4000 nM
same,IC50,MEL-HO,> 4000 nM
same,IC50,MOLT-13,1010 nM
same,IC50,CAPAN-1,> 4000 nM
same,IC50,DK-MG,> 4000 nM
same,IC50,Detroit 562,> 4000 nM
same,IC50,C3A,> 4000 nM
same,IC50,SK-MEL3,> 4000 nM
same,IC50,IGROV-1,> 4000 nM
same,IC50,HCC70,> 4000 nM
same,IC50,T-24,779 nM
same,IC50,MeWo,937 nM
same,IC50,CAL-54,2200 nM
same,IC50,SAS,2200 nM
same,IC50,COLO-678,> 4000 nM
same,IC50,SCC-9,> 4000 nM
same,IC50,RPMI-7951,2760 nM
same,IC50,HT-1376,> 4000 nM
same,IC50,HSC-3,966 nM
same,IC50,HN,1540 nM
same,IC50,SNU-449,> 4000 nM
Cc1ccc(NC(=O)c2cccc(C(C)(C)C#N)c2)cc1Nc1ccc2ncn(C)c(=O)c2c1,IC50,SR,> 4000 nM
same,IC50,ARH-77,> 4000 nM
same,IC50,WSU-NHL,> 4000 nM
same,IC50,OPM-2,3030 nM
same,IC50,SUP-T1,1740 nM
same,IC50,KARPAS-422,> 4000 nM
same,IC50,GDM-1,229 nM
same,IC50,D-336MG,> 4000 nM
same,IC50,MOLT-13,> 4000 nM
same,IC50,BL-70,2860 nM
same,IC50,NCCIT,> 4000 nM
same,IC50,NALM-6,> 4000 nM
CC[C@@]1(O)C(=O)OCc2c1cc1n(c2=O)Cc2cc3ccccc3nc2-1 [CAMPTOTHECIN],IC50,HuCCT-1,73.2 nM
same,IC50,CHP-212,1.03 nM
same,IC50,NCI-H2087,5.07 nM
same,IC50,HT-29,85.5 nM
same,IC50,23132-87,19.5 nM
same,IC50,BHT-101,1.82 nM
same,IC50,639-V,0.171 nM
same,IC50,MHH-ES-1,0.129 nM
same,IC50,Daoy,0.481 nM
same,IC50,HuP-T3,36.4 nM
same,IC50,SW780,25.8 nM
same,IC50,HCT-116,5.05 nM
same,IC50,FTC-133,4.57 nM
same,IC50,A 172,12.8 nM
same,IC50,G-402,24.5 nM
same,IC50,NCI-H460,24.1 nM
same,IC50,CAL-33,6 nM
same,IC50,TYK-nu,4.94 nM
same,IC50,HEC-1,18.1 nM
same,IC50,HTC-C3,31.5 nM
same,IC50,U2OS,13.5 nM
same,IC50,CAMA-1,87.4 nM
same,IC50,VMRC-RCZ,47.3 nM
same,IC50,GP5d,12.5 nM
same,IC50,GMS-10,7.31 nM
same,IC50,BFTC-905,0.14 nM
same,IC50,DU-145,> 100 nM
same,IC50,NCI-H441,28.5 nM
same,IC50,CAL-85-1,> 100 nM
same,IC50,Panc1005,19.7 nM
same,IC50,D-336MG,5.2 nM
same,IC50,MEL-HO,7.63 nM
same,IC50,MOLT-13,1.79 nM
same,IC50,CAPAN-1,15 nM
same,IC50,DK-MG,84.7 nM
same,IC50,Detroit 562,13.3 nM
same,IC50,C3A,56.9 nM
same,IC50,UO-31,34.1 nM
same,IC50,IGROV-1,36.3 nM
same,IC50,HCC70,45.5 nM
same,IC50,T-24,1.61 nM
same,IC50,MeWo,47 nM
same,IC50,CAL-54,4.76 nM
same,IC50,SAS,1.24 nM
same,IC50,COLO-678,> 100 nM
same,IC50,SCC-9,33.2 nM
same,IC50,RPMI-7951,4.75 nM
same,IC50,HT-1376,> 100 nM
same,IC50,HSC-3,3.02 nM
same,IC50,HN,1.4 nM
Cn1c(=O)n(-c2ccc(C(C)(C)C#N)cc2)c2c3cc(-c4cnc5ccccc5c4)ccc3ncc21 [DACTOLISIB],IC50,HuCCT-1,90.8 nM
same,IC50,CHP-212,74.9 nM
same,IC50,NCI-H2087,235 nM
same,IC50,HT-29,> 2000 nM
same,IC50,BHT-101,30 nM
same,IC50,NCI-H1573,87.5 nM
same,IC50,639-V,85.4 nM
same,IC50,MHH-ES-1,51.9 nM
same,IC50,Daoy,36.7 nM
same,IC50,HuP-T3,1120 nM
same,IC50,SW780,23.1 nM
same,IC50,HCT-116,131 nM
same,IC50,FTC-133,25.1 nM
same,IC50,G-402,22.2 nM
same,IC50,NCI-H460,81.2 nM
same,IC50,CAL-33,85.1 nM
same,IC50,TYK-nu,9.94 nM
same,IC50,HEC-1,67.5 nM
same,IC50,HTC-C3,117 nM
same,IC50,U2OS,29.5 nM
same,IC50,CAMA-1,9.8 nM
same,IC50,VMRC-RCZ,15.6 nM
same,IC50,GP5d,434 nM
same,IC50,GMS-10,174 nM
same,IC50,BFTC-905,60.7 nM
same,IC50,DU-145,> 2000 nM
same,IC50,KP-N-YN,> 2000 nM
same,IC50,NCI-H441,895 nM
same,IC50,CAL-85-1,92.5 nM
same,IC50,Panc1005,246 nM
same,IC50,MDA-MB-415,177 nM
same,IC50,MEL-HO,24 nM
same,IC50,MOLT-13,113 nM
same,IC50,CAPAN-1,> 2000 nM
same,IC50,DK-MG,180 nM
same,IC50,Detroit 562,102 nM
same,IC50,C3A,> 2000 nM
same,IC50,UO-31,96.7 nM
same,IC50,SK-MEL3,148 nM
same,IC50,IGROV-1,136 nM
same,IC50,HCC70,409 nM
same,IC50,T-24,43.8 nM
same,IC50,MeWo,12 nM
same,IC50,CAL-54,238 nM
same,IC50,SAS,653 nM
same,IC50,COLO-678,> 2000 nM
same,IC50,SCC-9,293 nM
same,IC50,RPMI-7951,19.3 nM
same,IC50,HT-1376,385 nM
same,IC50,HSC-3,12.2 nM
same,IC50,HN,5.96 nM
same,IC50,SNU-449,75.8 nM
